The term IC50 denotes the midpoint of a concentration-inhibition curve.

Experiment [1] deals with c-Src kinase (Homo sapiens, UniProt P12931). As to the kind of experiment: c-Src kinase inhibition. Type of experiment: biochemical. The note with it: Table 5; read-out: c-scr, IC50 class. The source says:
An appropriate assay is described in Andrejauskas-Buchdunger et al., Cancer Res. 52, 5353-8 (1992).

Experiment [2] addresses T1, human EphB4 receptor (Homo sapiens, UniProt P54760).
T1 construct: made in house; host or cells: Sf9 or Sf21 (baculovirus)
T1 sequence (P54760 566-987): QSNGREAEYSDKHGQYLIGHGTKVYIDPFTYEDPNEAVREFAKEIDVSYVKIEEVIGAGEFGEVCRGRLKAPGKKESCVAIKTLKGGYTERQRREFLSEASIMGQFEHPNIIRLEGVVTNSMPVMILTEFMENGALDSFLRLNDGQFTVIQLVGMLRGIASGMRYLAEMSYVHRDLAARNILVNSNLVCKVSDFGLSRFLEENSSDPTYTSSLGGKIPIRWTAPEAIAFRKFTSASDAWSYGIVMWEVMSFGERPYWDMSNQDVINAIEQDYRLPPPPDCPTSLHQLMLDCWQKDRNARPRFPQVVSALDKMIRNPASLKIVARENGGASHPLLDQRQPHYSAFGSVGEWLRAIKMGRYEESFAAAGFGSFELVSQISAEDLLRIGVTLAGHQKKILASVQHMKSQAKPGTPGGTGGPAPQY
As to the kind of experiment: EphB4 kinase assay, GST-EphB, 33P incorporation into poly(Glu,Tyr). Type of experiment: biochemical. The note with it: Table 5; read-out: EphB4, IC50 class. An excerpt: EphB4: Production and measure of enzymatic activity: Generation of Bac-to-Bac™ (Initrogen Life Technologies, Basel, Switzerland) GST-fusion expression vectors: Entire cytoplasmatic coding regions of the EphB-class are amplified by PCR from cDNA libraries derived from human placenta or brain, respectively. Recombinant baculovirus are generated that express the amino acid region 566-987 of the human EphB4 receptor (SwissProt Database, Accession No. P54760). GST sequence is cloned into pFastBac1® vector (Invitrogen Life Technologies, Basel, Switzerland) and PCR amplified. cDNAs encoding EphB4-receptor domains, respectively, are cloned in frame 3′prime to the GST sequence into this modified FastBac1 vector to generate pBac-to-Bac™ donor vectors. Single colonies arising from the transformation are inoculated to give overnight cultures for small scale plasmid preparation. […] By automated sequencing the inserts and approximately 50 bp of the flanking vector sequences are confirmed on both strands. Production of viruses: Viruses for each of the kinases are made according to the protocol supplied by GIBCO if not stated otherwise. In brief, transfer vectors containing the kinase domains are transfected into the DH10Bac cell line (GIBCO) and plated on selective agar plates. Colonies without insertion of the fusion sequence into the viral genome (carried by the bacteria) are blue. Single white colonies are picked and viral DNA (bacmid) isolated from the bacteria by standard plasmid purification procedures. Sf9 cells or Sf21 cells are then transfected in 25 cm2 flasks with the viral DNA using Cellfectin reagent according to the protocol. Purification of GST-tagged kinases: The centrifuged cell lysate is loaded onto a 2 mL glutathione-sepharose column (Pharmacia) and washed three times with 10 mL of 25 mM Tris-HCl, pH 7.5, 2 mM EDTA, 1 mM DTT, 200 mM NaCl. The GST-tagged proteins are then eluted by 10 applications (1 mL each) of 25 mM Tris-HCl, pH 7.5, 10 mM reduced-glutathione, 100 mM NaCl, 1 mM DTT, 10% Glycerol and stored at −70° C. Protein kinase assays: The activities of protein kinases are assayed in the presence or absence of inhibitors, by measuring the incorporation of 33P from [γ33P]ATP into a polymer of glutamic acid and tyrosine (poly(Glu,Tyr)) as a substrate. The kinase assays with purified GST-EphB (30 ng) are carried out for 15-30 min at ambient temperature in a final volume of 30 μL containing 20 mM Tris.HCl, pH 7.5, 10 mM MgCl2, 3-50 mM MnCl2, 0.01 mM Na3VO4, 1% DMSO, 1 mM DTT, 3 μg/mL poly(Glu,Tyr) 4:1 (Sigma; St. Louis, Mo., USA) and 2.0-3.0 μM ATP (γ-[33P]-ATP 0.1 μCi). The assay is terminated by the addition of 20 μL of 125 mM EDTA. Subsequently, 40 μl of the reaction mixture are transferred onto Immobilon-PVDF membrane (Millipore, Bedford, Mass., USA) previously soaked for 5 min with methanol, rinsed with water, then soaked for 5 min with 0.5% H3PO4 and mounted on vacuum manifold with disconnected vacuum source. After spotting all samples, vacuum is connected and each well rinsed with 200 μl 0.5% H3PO4. Membranes are removed and washed 4× on a shaker with 1.0% H3PO4, once with ethanol. Membranes are counted after drying at ambient temperature, mounting in Packard TopCount96-well frame, and addition of 10 μL/well of Microscint™ (Packard). IC50 values are calculated by linear regression analysis of the percentage inhibition of each compound in duplicate, at four concentrations (usually 0.01, 0.1, 1 and 10 μM). One unit of protein kinase activity is defined as 1 nmole of 33P ATP transferred from [γ33P] ATP to the substrate protein per minute per mg of protein at 37° C. Compounds of formula I show EphB4 inhibition down to 10 nM, preferably IC50 values between 0.01-1.0 μM.

Where only a bound is given, the exact number is not on record here.

Sequence of c-Src kinase (P12931 whole entry): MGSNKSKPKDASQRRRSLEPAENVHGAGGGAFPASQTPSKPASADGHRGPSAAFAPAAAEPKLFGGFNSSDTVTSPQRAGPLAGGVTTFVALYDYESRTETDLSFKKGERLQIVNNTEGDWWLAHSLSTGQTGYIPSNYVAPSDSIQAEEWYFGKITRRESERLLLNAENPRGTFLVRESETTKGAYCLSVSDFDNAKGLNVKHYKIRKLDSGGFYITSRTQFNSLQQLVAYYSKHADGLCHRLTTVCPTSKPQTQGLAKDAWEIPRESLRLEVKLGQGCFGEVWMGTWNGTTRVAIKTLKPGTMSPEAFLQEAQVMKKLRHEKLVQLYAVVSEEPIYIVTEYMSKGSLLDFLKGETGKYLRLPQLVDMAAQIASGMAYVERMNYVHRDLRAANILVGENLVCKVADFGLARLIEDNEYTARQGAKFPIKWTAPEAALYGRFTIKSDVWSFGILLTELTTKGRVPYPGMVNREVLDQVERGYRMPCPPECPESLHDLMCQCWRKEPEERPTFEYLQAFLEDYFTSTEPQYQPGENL

Regarding `Cc1nc2c(-c3cccc(N4C[C@@H](C)O[C@@H](C)C4)c3)cnn2c(N)c1-c1cccc(Cl)c1` [Example 89, 6-(3-Chloro-phenyl)-3-[3-((2R,6S)-2,6-dimethyl-morpholin-4-yl)-phenyl]-5-methyl-pyrazolo[1,5-a]pyrimidin-7-ylamine], the IC50 in experiment [1] and in experiment [2] was under 1000 nM throughout.
For `Cc1nc2c(-c3cccc(N4CCN(CCO)CC4)c3)cnn2c(N)c1-c1cccc(Cl)c1` [Example 90, 2-(4-{3-[7-Amino-6-(3-chloro-phenyl)-5-methyl-pyrazolo[1,5-a]pyrimidin-3-yl]-phenyl}-piperazin-1-yl)-ethanol], the IC50 in experiment [1] and in experiment [2] was under 1000 nM each time.
Turning to `CN1CCN(c2cccc(-c3cnn4c(N)c(Cc5ccccc5)cnc34)c2)CC1` [Example 91, 6-Benzyl-3-[3-(4-methyl-piperazin-1-yl)-phenyl]-pyrazolo[1,5-a]pyrimidin-7-ylamine], the IC50 is over 10000 nM in experiment [1] and under 1000 nM in experiment [2].
For `COc1ccc(-c2cnn3c(N)c(-c4cccc(Cl)c4)c(C)nc23)cc1OC` [Example 93, 6-(3-Chloro-phenyl)-3-(3,4-dimethoxy-phenyl)-5-methyl-pyrazolo[1,5-a]pyrimidin-7-ylamine], in that order: under 1000 nM and under 1000 nM.
For `COc1ccc(-c2cnn3c(N)c(-c4ccc(F)c(Cl)c4)c(C)nc23)cc1OC` [Example 94, 6-(3-Chloro-4-fluoro-phenyl)-3-(3,4-dimethoxy-phenyl)-5-methyl-pyrazolo[1,5-a]pyrimidin-7-ylamine], in that order: under 1000 nM and under 1000 nM.
Take `COc1ccc(-c2cnn3c(N)c(-c4ccc(F)c(Cl)c4)c(C)nc23)cc1` [Example 95, 6-(3-Chloro-4-fluoro-phenyl)-3-(4-methoxy-phenyl)-5-methyl-pyrazolo[1,5-a]pyrimidin-7-ylamine]: the results for the IC50 in experiment [1] and in experiment [2] were 1000 to 10000 nM and under 1000 nM, respectively.
Consider `COc1ccc(-c2cnn3c(N)c(-c4ccc(F)cc4)c(C)nc23)cc1` [Example 96, 6-(4-Fluoro-phenyl)-3-(4-methoxy-phenyl)-5-methyl-pyrazolo[1,5-a]pyrimidin-7-ylamine], for which the IC50 in experiment [1] and in experiment [2] was under 1000 nM in each case.
In the case of `Cc1nc2c(-c3cccc(N4CCN(CCO)CC4)c3)cnn2c(N)c1-c1ccc(F)cc1` [Example 97, 2-(4-{3-[7-Amino-6-(4-fluoro-phenyl)-5-methyl-pyrazolo[1,5-a]pyrimidin-3-yl]-phenyl}-piperazin-1-yl)-ethanol], the concentration for half-maximal inhibition (IC50) in experiment [1] and in experiment [2] was under 1000 nM in each case.
As to `Cc1nc2c(-c3cccc(N4CCN(C)CC4)c3)cnn2c(N)c1-c1ccc(F)c(F)c1` [Example 98, 6-(3,4-Difluoro-phenyl)-5-methyl-3-[3-(4-methyl-piperazin-1-yl)-phenyl]-pyrazolo[1,5-a]pyrimidin-7-ylamine], the IC50 in experiment [1] and in experiment [2] was under 1000 nM throughout.
Regarding `COc1ccc(-c2cnn3c(N)c(-c4ccc(F)c(F)c4)c(C)nc23)cc1OC` [Example 99, 6-(3,4-Difluoro-phenyl)-3-(3,4-dimethoxy-phenyl)-5-methyl-pyrazolo[1,5-a]pyrimidin-7-ylamine], the IC50 in experiment [1] and in experiment [2] was under 1000 nM in each case.
On to `Cc1nc2c(-c3cccc(N4CCN(CCO)CC4)c3)cnn2c(N)c1-c1ccc(F)c(Cl)c1` [Example 100, 2-(4-{3-[7-Amino-6-(3-chloro-4-fluoro-phenyl)-5-methyl-pyrazolo[1,5-a]pyrimidin-3-yl]-phenyl}-piperazin-1-yl)-ethanol], for which the IC50 in experiment [1] and in experiment [2] was under 1000 nM each time.
With `Cc1nc2c(-c3cccc(N4CCN(CCO)CC4)c3)cnn2c(N)c1-c1ccc(F)c(F)c1` [Example 101, 2-(4-{3-[7-Amino-6-(3,4-difluoro-phenyl)-5-methyl-pyrazolo[1,5-a]pyrimidin-3-yl]-phenyl}-piperazin-1-yl)-ethanol], the IC50 in experiment [1] and in experiment [2] was under 1000 nM in each case.
As for `Cc1nc2c(-c3cccc(N4CCC(N5CCCC5)CC4)c3)cnn2c(N)c1-c1cccc(Cl)c1` [Example 102, 6-(3-Chloro-phenyl)-5-methyl-3-[3-(4-pyrrolidin-1-yl-piperidin-1-yl)-phenyl]-pyrazolo[1,5-a]pyrimidin-7-ylamine], the 50% inhibitory concentration (IC50) in experiment [1] and in experiment [2] was under 1000 nM in each case.
Consider `Cc1nc2c(-c3cccc(N4CCC(N5CCCC5)CC4)c3)cnn2c(N)c1-c1ccc(F)cc1` [Example 103, 6-(4-Fluoro-phenyl)-5-methyl-3-[3-(4-pyrrolidin-1-yl-piperidin-1-yl)-phenyl]-pyrazolo[1,5-a]pyrimidin-7-ylamine], for which the IC50 in experiment [1] and in experiment [2] was under 1000 nM each time.
Take `Cc1nc2c(-c3cccc(N4CC[N+](C)([O-])CC4)c3)cnn2c(N)c1-c1ccc(F)cc1` [Example 106, 6-(4-Fluoro-phenyl)-5-methyl-3-[3-(4-methyl-4-oxy-piperazin-1-yl)-phenyl]-pyrazolo[1,5-a]pyrimidin-7-ylamine]: the IC50 in experiment [1] and in experiment [2] was under 1000 nM throughout.
On to `Cc1nc2c(-c3cccc([N+]4([O-])CC[N+](C)([O-])CC4)c3)cnn2c(N)c1-c1ccc(F)cc1` (centres unmarked) [Example 107, 6-(4-Fluoro-phenyl)-5-methyl-3-[3-(4-methyl-1,4-dioxy-piperazin-1-yl)-phenyl]-pyrazolo[1,5-a]pyrimidin-7-ylamine], for which the IC50 in experiment [1] and in experiment [2] was under 1000 nM in each case.
